Here are results for 19 compounds from patent US8691815B2, “Substituted oxindole derivatives, drugs containing said derivatives and the use thereof” (AbbVie Deutschland GmbH & Co. KG, priority 2005, dated 2014).

Structures can show the parent of a compound that is named as a salt. A value given as a limit tells only on which side of the number the result lay.

For this assay, the target named is T1, human vasopressin V1b receptor (Homo sapiens, UniProt P47901).
T1 construct: expressed in transfected cells; host or cells: CHO-K1 (cell line hV1b-3H2_CHO), membrane preparation
T1 sequence (P47901 1-424): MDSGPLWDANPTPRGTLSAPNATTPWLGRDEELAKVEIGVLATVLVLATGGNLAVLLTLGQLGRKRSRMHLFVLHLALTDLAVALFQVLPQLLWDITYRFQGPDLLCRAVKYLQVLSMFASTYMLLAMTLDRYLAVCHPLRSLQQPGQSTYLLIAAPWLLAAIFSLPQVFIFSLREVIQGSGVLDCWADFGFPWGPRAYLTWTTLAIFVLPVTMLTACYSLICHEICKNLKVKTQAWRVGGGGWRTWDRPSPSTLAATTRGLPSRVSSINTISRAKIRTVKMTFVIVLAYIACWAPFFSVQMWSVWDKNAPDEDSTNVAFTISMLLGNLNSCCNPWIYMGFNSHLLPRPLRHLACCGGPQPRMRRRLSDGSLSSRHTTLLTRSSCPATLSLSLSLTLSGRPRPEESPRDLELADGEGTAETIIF
Description: Vasopressin V1b receptor binding assay. The conditions noted are these: membranes from CHO-K1 cells with stably expressed human V1b receptors, displacement of 1.5 nM 3H-AVP. The protocol: Vasopressin V1b Receptor Binding Assay:
The test substances were dissolved in a concentration of 10^−2 M in DMSO (dimethyl sulfoxide) and further diluted to 5×10^−4 M to 5×10^−9 M in DMSO. This series of DMSO predilutions was diluted 1:10 with assay buffer. The substance concentration was again diluted 1:5 in the assay mixture (2% DMSO in the mixture).
The membrane pellet was again homogenized and centrifuged as described and then taken up in 50 mM Tris-HCl, pH 7.4, homogenized and stored in aliquots frozen in liquid nitrogen at −190° C.
The incubation buffer was: 50 mM Tris, 10 mM MgCl2, 0.1% BSA, pH 7.4.
The nonspecific binding was determined with 1 uM AVP (Bachem # H1780). All determinations were carried out as triplicate determinations. After incubation (60 minutes at room temperature), the free radioligand was removed by vacuum filtration (Skatron cell harvester 7000) through Whatman GF/B glass fiber filter mats, and the filters were transferred into scintillation vials. The liquid scintillation measurement took place in a Tricarb model 2000 or 2200CA instrument (Packard). Conversion of the measured cpm into dpm was carried out with the aid of a standard quench series.
The binding parameters were calculated by nonlinear regression in SAS.
In turn, `COc1ccc(S(=O)(=O)N2C(=O)C(c3cc(CN(C)CCN(C)C)ccc3OC)(N3CCC[C@H]3C(=O)N(C)C)c3cc(Cl)ccc32)c(OC)c1` (stereo partly drawn) [Example 29, (S)-1-[5-Chloro-1-(2,4-dimethoxybenzenesulfonyl)-3-(5-{[(2-dimethylaminoethyl)-methylamino]methyl}-2-methoxyphenyl)-2-oxo-2,3-dihydro-1H-indol-3-yl]pyrrolidine-2-dimethylcarboxamide, trifluoroacetic acid salt] showed a Ki of less than 1 nM.

The compound `COc1ccc(CN(C)C)cc1C1(N2CCC[C@H]2C(=O)N(C)C)C(=O)N(S(=O)(=O)c2ccc(C#N)cc2)c2ccc(Cl)cc21` (stereo partly drawn) [Example 95, (S)-1-[5-Chloro-1-(4-cyanobenzenesulfonyl)-3-(5-dimethylaminomethyl-2-methoxy-phenyl)-2-oxo-2,3-dihydro-1H-indol-3-yl]pyrrolidine-2-dimethylcarboxamide] returned a Ki of 1 to 10 nM.

Regarding `COc1ccc(S(=O)(=O)N2C(=O)C(c3cc(CN(C)C)ccc3OC)(N3CCC[C@H]3C(=O)N(C)C)c3cc(Cl)ccc32)cc1` (stereo partly drawn) [Example 17, (S)-1-[5-Chloro-3-(5-dimethylaminomethyl-2-methoxyphenyl)-1-(4-methoxy-benzene-sulfonyl)-2-oxo-2,3-dihydro-1H-indol-3-yl]pyrrolidine-2-dimethylcarboxamide, trifluoroacetic acid salt], the Ki was less than 1 nM.

The compound `CNCc1ccc(OC)c(C2(N3CCC[C@H]3C(=O)N(C)C)C(=O)N(S(=O)(=O)c3ccc(C#N)cc3)c3ccc(Cl)cc32)c1` (stereo partly drawn) [Example 102, (S)-1-[5-Chloro-1-(4-cyanobenzenesulfonyl)-3-(2-methoxy-5-methylaminomethyl-phenyl)-2-oxo-2,3-dihydro-1H-indol-3-yl]pyrrolidine-2-dimethylcarboxamide, trifluoroacetic acid salt] showed a Ki of 1 to 10 nM.

Compound `COc1ccc(S(=O)(=O)N2C(=O)C(c3ccc(CN(C)CCN(C)C)cc3OC)(N3CCC[C@H]3C(=O)N(C)C)c3cc(Cl)ccc32)c(OC)c1` (stereo partly drawn) [Example 12, (S)-1-[5-Chloro-1-(2,4-dimethoxybenzenesulfonyl)-3-(4-{[(2-dimethylaminoethyl)-methylamino]methyl}-2-methoxyphenyl)-2-oxo-2,3-dihydro-1H-indol-3-yl]pyrrolidine-2-dimethylcarboxamide] yielded a Ki of 1 to 10 nM.

As to `COc1ccc(S(=O)(=O)N2C(=O)C(c3ccc(CN4CCN(C)CC4)cc3OC)(N3CCC[C@H]3C(=O)N(C)C)c3ccccc32)cc1` (stereo partly drawn) [Example 92, (S)-1-{1-(4-Methoxybenzenesulfonyl)-3-[2-methoxy-4-(4-methylpiperazin-1-yl-methyl)phenyl]-2-oxo-2,3-dihydro-1H-indol-3-yl}-pyrrolidine-2-carboxylic acid dimethylamide, trifluoroacetic acid salt], the Ki fell in the range of 1 to 10 nM.

The compound `COc1ccc(S(=O)(=O)N2C(=O)C(c3ccc(CN4CCN(C(C)=O)CC4)cc3OC)(N3CCC[C@H]3C(=O)N(C)C)c3cc(Cl)ccc32)c(OC)c1` (stereo partly drawn) [Example 11, (S)-1-[3-[4-(4-Acetylpiperazin-1-ylmethyl)-2-methoxyphenyl]-5-chloro-1-(2,4-dimethoxy-benzenesulfonyl)-2-oxo-2,3-dihydro-1H-indol-3-yl]pyrrolidine-2-dimethylcarboxamide] gave a Ki of 10 to 100 nM.

For `COc1ccc(S(=O)(=O)N2C(=O)C(c3ccc(CN(C)C)cc3OC)(N3CCC[C@H]3C(=O)N(C)C)c3ccccc32)cc1` (stereo partly drawn) [Example 90, (S)-1-[3-(4-Dimethylaminomethyl-2-methoxyphenyl)-1-(4-methoxybenzenesulfonyl)-2-oxo-2,3-dihydro-1H-indol-3-yl]pyrrolidine-2-dimethylcarboxamide, trifluoroacetic acid salt], the Ki was in the range of 10 to 100 nM.

In turn, `CCN(C)Cc1ccc(C2(N3CCC[C@H]3C(=O)N(C)C)C(=O)N(S(=O)(=O)c3ccc(OC)cc3)c3ccc(Cl)cc32)c(OC)c1` (stereo partly drawn) [Example 84, (S)-1-[5-Chloro-3-{4-[(ethylmethylamino)methyl]-2-methoxyphenyl}-1-(4-methoxy-benzenesulfonyl)-2-oxo-2,3-dihydro-1H-indol-3-yl]pyrrolidine-2-dimethylcarboxamide, trifluoroacetic acid salt] displayed a Ki of less than 1 nM.

`COc1cc(CN2CCCC2)ccc1C1(N2CCC[C@H]2C(=O)N(C)C)C(=O)N(S(=O)(=O)c2ccc(C#N)cc2)c2ccc(Cl)cc21` (stereo partly drawn) [Example 5, (S)-1-[5-Chloro-1-(4-cyanobenzenesulfonyl)-3-(2-methoxy-4-pyrrolidin-1-ylmethyl-phenyl)-2-oxo-2,3-dihydro-1H-indol-3-yl]pyrrolidine-2-dimethylcarboxamide, trifluoroacetic acid salt]: the Ki is less than 1 nM.

`COc1ccc(S(=O)(=O)N2C(=O)C(c3ccc(CN4CCCC4)cc3OC)(N3CCC[C@H]3C(=O)N(C)C)c3ccccc32)cc1` (stereo partly drawn) [Example 91, (S)-1-[1-(4-Methoxybenzenesulfonyl)-3-(2-methoxy-4-pyrrolidin-1-ylmethylphenyl)-2-oxo-2,3-dihydro-1H-indol-3-yl]pyrrolidine-2-dimethylcarboxamide, trifluoroacetic acid salt] yielded a Ki of 1 to 10 nM.

In turn, `COc1cc(CN2CCNCC2)ccc1C1(N2CCC[C@H]2C(=O)N(C)C)C(=O)N(S(=O)(=O)c2ccc(C#N)cc2)c2ccc(Cl)cc21` (stereo partly drawn) [Example 99, (S)-1-[5-Chloro-1-(4-cyanobenzenesulfonyl)-3-(2-methoxy-4-piperazin-1-ylmethyl-phenyl)-2-oxo-2,3-dihydro-1H-indol-3-yl]pyrrolidine-2-dimethylcarboxamide, trifluoroacetic acid salt] had a Ki of less than 1 nM.

Regarding `COc1ccc(S(=O)(=O)N2C(=O)C(c3ccc(CN4CCCC4)cc3OC)(N3CCC[C@H]3C(=O)N(C)C)c3cc(Cl)ccc32)c(OC)c1` (stereo partly drawn) [Example 1, (S)-1-[5-Chloro-1-(2,4-dimethoxybenzenesulfonyl)-3-(2-methoxy-4-pyrrolidin-1-yl-methylphenyl)-2-oxo-2,3-dihydro-1H-indol-3-yl]-pyrrolidine-2-dimethylcarboxamide, trifluoroacetic acid salt], the Ki is less than 1 nM.

Consider `COc1ccc(S(=O)(=O)N2C(=O)C(c3ccc(CN4CCCC4)cc3)(N3C[C@H](O)C[C@H]3C(=O)N(C)C)c3cc(Cl)ccc32)c(OC)c1` (stereo partly drawn) [Example 6, (2S,4R)-1-[5-Chloro-1-(2,4-dimethoxybenzenesulfonyl)-2-oxo-3-(4-pyrrolidin-1-yl-methylphenyl)-2,3-dihydro-1H-indol-3-yl]-4-hydroxypyrrolidine-2-dimethylcarboxamide], for which the Ki fell in the range of 10 to 100 nM.

Regarding `CCCNCc1ccc(OC)c(C2(N3CCC[C@H]3C(=O)N(C)C)C(=O)N(S(=O)(=O)c3ccc(C#N)cc3)c3ccc(Cl)cc32)c1` (stereo partly drawn) [Example 100, (S)-1-[5-Chloro-1-(4-cyanobenzenesulfonyl)-3-(2-methoxy-5-propylaminomethyl-phenyl)-2-oxo-2,3-dihydro-1H-indol-3-yl]pyrrolidine-2-dimethylcarboxamide, trifluoroacetic acid salt], the Ki is less than 1 nM.

As to `COc1cc(CN2CCNCC2)ccc1C1(N2CCC[C@H]2C(=O)N(C)C)C(=O)N(S(=O)(=O)c2ccc(C#N)cc2)c2ccc(Cl)cc21` (stereo partly drawn) [Example 82, (S)-1-[5-Chloro-1-(4-cyanobenzenesulfonyl)-3-(2-methoxy-4-piperazin-1-ylmethyl-phenyl)-2-oxo-2,3-dihydro-1H-indol-3-yl]pyrrolidine-2-dimethylcarboxamide, trifluoroacetic acid salt], the Ki is less than 1 nM.

As to `COc1ccc(S(=O)(=O)N2C(=O)C(c3ccc(CN4CCOCC4)cc3OC)(N3CCC[C@H]3C(=O)N(C)C)c3cc(Cl)ccc32)c(OC)c1` (single isomer, unassigned) [Example 10], the Ki was in the range of 10 to 100 nM.

As for `COc1ccc(S(=O)(=O)N2C(=O)C(c3ccc(CN4CCN(C)CC4)cc3OC)(N3CCC[C@H]3C(=O)N(C)C)c3cc(Cl)ccc32)c(OC)c1` (stereo partly drawn) [Example 9, (S)-1-{5-Chloro-1-(2,4-dimethoxybenzenesulfonyl)-3-[2-methoxy-4-(4-methyl-piperazin-1-ylmethyl)phenyl]-2-oxo-2,3-dihydro-1H-indol-3-yl}pyrrolidine-2-dimethylcarboxamide], the Ki is 1 to 10 nM.

As to `COc1ccc(CN(C)C)cc1C1(N2CCC[C@H]2C(=O)N(C)C)C(=O)N(S(=O)(=O)c2ccc(F)cc2)c2ccc(Cl)cc21` (stereo partly drawn) [Example 98, (S)-1-[5-Chloro-3-(5-dimethylaminomethyl-2-methoxyphenyl)-1-(4-fluorobenzene-sulfonyl)-2-oxo-2,3-dihydro-1H-indol-3-yl]pyrrolidine-2-dimethylcarboxamide, trifluoroacetic acid salt], the Ki is 1 to 10 nM.

A word on the Ki: it is a dissociation constant, usually derived from enzyme kinetics or from competition with a known ligand. A higher Ki goes with lower affinity.
